Reference: patent publication EP0797567B1, “NOVEL AMINO ACID DERIVATIVES WITH IMPROVED MULTI-DRUG RESISTANCE ACTIVITY” (Vertex Pharmaceuticals Incorporated, priority 1994, dated 1996)

Tests used:
HL60/ADR cells = assay: Inhibition of MRP-mediated MDR: doxorubicin with or without compound, XTT viability; type: cell-based; conditions: Homo sapiens, 72 h, doxorubicin alone, no MDR inhibitor, control run of the compound in the same table row, 3 days, read-out: IC50 Dox alone
Procedure: We plated HL60/ADR cells in 96 well microtiter plates (4 x 10^4 cells/well). […] After culturing the cells for 3 days, their viability was quantitated using the XTT dye method to assess mitochondrial function. […] IC50 values are expressed in nM. In all assays the intrinsic antiproliferative or cytotoxic activity of the MDR inhibitors was also determined for HL60/ADR cells.

L1210VMDRC.06 = assay: MDR sensitization assay: doxorubicin antiproliferative activity with or without MDR inhibitor (MTT/XTT viability); type: cell-based, mouse; conditions: IC50 Dox / IC50 Dox + Inhibitor
Procedure: To assay the ability of the compounds according to this invention to increase the antiproliferative activity of a drug, cell lines which are known to be resistant to a particular drug may be used. These cell lines include, but are not limited to, the L1210, P388D, CHO and MCF7 cell lines. Alternatively, resistant cell lines may be developed. The cell line is exposed to the drug to which it is resistant, or to the test compound; cell viability is then measured and compared to the viability of cells which are exposed to the drug in the presence of the test compound. […]
Multi-drug resistance assays were conducted by plating cells (2 x 10^3, 1 x 10^4, or 5 x 10^4 cells/well) in 96 well microtiter plates and exposing them to a concentration range of doxorubicin ([…]) as described in Ford et al., Cancer Res., Vol. 50, 1748-1756. […] After culture for 3 days, the viability of cells was quantitated using MTT (Mossman) or XTT dyes to assess mitochondrial function. […]
Results were determined by comparison of the IC50 for doxorubicin alone to the IC50 for doxorubicin+ MDR inhibitor. An MDR ratio was calculated (IC50 Dox/ IC50 Dox + Inhibitor) and the integer value used for comparison of compound potencies.

| Compound | IC50 (HL60/ADR cells) | MDR Ratio 0.5 µM (L1210VMDRC.06; 0.5 µM compound) | MDR Ratio 1.0 µM (L1210VMDRC.06; 1.0 µM compound) |
| --- | --- | --- | --- |
| COc1cccc2c1C(=O)c1c(O)c3c(c(O)c1C2=O)C[C@@](O)(C(=O)CO)C[C@@H]3O[C@H]1C[C@H](N)[C@H](O)[C@H](C)O1 [Dox, doxorubicin] | 5 µM | – | – |
| (S)-N-Benzyl-2-(methyl-(2-oxo-2-(3,4,5-trimethoxyphenyl)acetyl)amino)-3-phenyl-N-(3-(pyridin-4-yl)-1-(2-(pyridin-4-yl)-propyl)butyl)propionamide [Compound 12] | – | 3.2 | >9.2 |
